Read-outs that look alike come from different tables or passages of the source.
How the values were obtained:
CCK-A receptor = target: T1, CCK-A receptor (Rattus norvegicus, UniProt P30551); assay: Selectivity for the CCK-B receptor by comparison with binding to the CCK-A receptor in rats ([3H]L-364,718, pancreas membranes); parameters: species or system SD rat; conditions: table 2; for A/B Ratio: IC50 (CCK-A)/IC50 (CCK-B): higher value = better CCK-B selectivity; for IC50: rat pancreas membranes, [3H]L-364,718, 37 °C, 30 min, read-out: Receptor binding affinity IC50, CCK-A
T1 construct: The pancreas of an SD rat was homogenized; from tissue; host or cells: SD rat pancreas membranes
T1 sequence (P30551 1-444): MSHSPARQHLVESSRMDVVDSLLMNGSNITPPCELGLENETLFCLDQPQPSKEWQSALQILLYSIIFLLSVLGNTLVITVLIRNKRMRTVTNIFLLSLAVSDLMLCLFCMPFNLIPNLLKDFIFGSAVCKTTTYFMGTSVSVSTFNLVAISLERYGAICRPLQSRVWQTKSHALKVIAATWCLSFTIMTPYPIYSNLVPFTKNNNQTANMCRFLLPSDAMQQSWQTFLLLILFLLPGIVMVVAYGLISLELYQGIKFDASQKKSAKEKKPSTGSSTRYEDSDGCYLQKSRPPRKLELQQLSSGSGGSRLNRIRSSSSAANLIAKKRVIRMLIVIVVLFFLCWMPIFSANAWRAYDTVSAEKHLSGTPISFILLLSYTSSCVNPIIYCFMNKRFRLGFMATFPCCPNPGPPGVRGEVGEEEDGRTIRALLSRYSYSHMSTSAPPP
Description: Determination of selectivity for the CCK-B receptor by comparison with binding to the CCK-A receptor in rats
The pancreas of an SD rat was homogenized in a 20-fold volume of 50 mM Tris-HCl buffer (pH 7.7) by the use of a Polytrone-type homogenizer, the homogenate was twice centrifuged for 10 minutes at 50000 G by the use of an ultra-centrifuge, the precipitate thus obtained was suspended in a 40-fold volume of 50 mM Tris-HCl buffer (containing 0.2% BSA, 5 mM MgCl2, 0.1 mg/ml bacitracin and 5 mM DTF; pH 7.7), and the suspension was stored at -80° C. until the membrane preparations were required.
The membrane preparations were then warmed to room temperature, diluted 1:10 with the buffer and incubated at 37° C. for 30 minutes in the presence of [^3 H]L-364,718 and the test compound then separated by suction filtration. Non-specific binding was determined in the presence of 1 μM L-364,718.
A high affinity for the CCK-A receptor in a CCK-B/gastrin antagonist is thought to be undesirable as it may lead to side-effects such as cholestasis and gall stone formation during therapy. Therefore it is preferable for the therapeutic agent to be selective for the CCK-B receptor. This selectivity is expressed by the ratio IC50 (CCK-A)/IC50 (CCK-B); the higher the value of this ratio the better is the selectivity.

CCK-B receptor = target: T2, CCK-B receptor (Rattus norvegicus, UniProt P30553); assay: Measurement of binding affinity for CCK-B receptors ([125I]BH-CCK-8, rat brain membranes); parameters: species or system SD rat
T2 construct: the whole brain was immediately excised from each of the rats and homogenized; from tissue; host or cells: SD rat whole brain membranes
T2 sequence (P30553 1-452): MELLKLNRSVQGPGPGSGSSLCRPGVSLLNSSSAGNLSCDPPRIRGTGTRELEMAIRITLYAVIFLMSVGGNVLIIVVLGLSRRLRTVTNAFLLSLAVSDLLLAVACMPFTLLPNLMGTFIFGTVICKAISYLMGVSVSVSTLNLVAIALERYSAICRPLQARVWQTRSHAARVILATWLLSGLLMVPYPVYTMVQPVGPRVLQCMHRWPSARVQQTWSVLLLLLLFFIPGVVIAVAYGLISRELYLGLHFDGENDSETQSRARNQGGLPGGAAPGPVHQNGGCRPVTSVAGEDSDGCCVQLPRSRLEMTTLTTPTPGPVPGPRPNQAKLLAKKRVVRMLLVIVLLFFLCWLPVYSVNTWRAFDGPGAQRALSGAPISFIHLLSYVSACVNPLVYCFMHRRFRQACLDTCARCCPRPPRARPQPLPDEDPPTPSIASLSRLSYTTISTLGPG
Description: About 100 SD rats were decapitated without anaesthesia, the whole brain was immediately excised from each of the rats and homogenized in 10-fold volume of 0.32M aqueous solution of sucrose by the use of a Teflon-coated homogenizer, the homogenate thus obtained was centrifuged for ten minutes at 900 G by the use of a cooled centrifuge, and the supernatant was further centrifuged for 15 minutes at 11500 G. The precipitate thus obtained was dispersed in 50 mM Tris-HCl buffer (pH 7.4) containing 0.08% Triton X-100, this suspension was allowed to stand for 30 minutes and again centrifuged for 15 minutes at 11500 G, the precipitate thus obtained was washed twice with 5 mM Tris-HCl buffer and twice with 50 mM Tris-HCl buffer in that order with centrifugal separation, the washed precipitate was suspended in 50 mM Tris-HCl buffer, and the suspension thus obtained was stored at -80° C. until the membrane preparation was required.
The membrane preparations were warmed to room temperature, diluted with 10 mM HEPES buffer (containing 130 mM NaCl, 5 mM MgCl2, 1 mM EGTA and 0.25 mg/ml bacitracin; pH 6.5) and incubated at 25° C. for 120 minutes in the presence of [^125 I]BH-CCK-8 and the test compound, then separated by suction filtration. Non-specific binding was determined in the presence of 1 μM CCK-8. The amount of labelled ligand bound to the receptor was measured by the use of a γ-counter, IC50 values were determined, being that concentration of test compound required to inhibit specific binding by 50%.

[1] = tested on: pentagastrin-stimulated gastric acid secretion; assay: Measurement of inhibition of pentagastrin-stimulated gastric acid secretion in rat; assay type: in vivo; conditions: intravenous; for % Inhibition (maximum inhibition of gastric acid secretion): at 0.1 μmol/kg, mean for 3-5 animals; for ED50: read-out: ED50 (dose reducing secreted gastric acid to 50% of the maximum level), table 3, "Relative ED50 values", anaesthetised rat, pentagastrin 15 μg/Kg/hr
Description: Measurement of inhibition of pentagastrin-stimulated gastric acid secreation in rat
A cannula was inserted into the trachea of a rat anaesthetised with urethane (intraperitoneally administered, 1.25 g/Kg), its abdominal wall was incised to expose the gastric and duodenal portions, and a polyethylene cannula was set in the anterior stomach after ligation of the cardia. The duodenum was then subjected to slight section, a polyethylene cannnula was inserted from the incised portion toward the stomach, and the pylorus was ligated to fix the cannula.
Physiological saline (with pH adjusted to 7.0) was perfused from the anterior stomach toward the pylorus at a rate of 3 ml/min, and the gastric-acid secreation was measured by continuous titration of the perfusate by the use of a pH-stat (AUT-201; product of Toa Electronics, Ltd.). The continuous titration was carried out by using 25 mM NaOH solution until the pH reached 7.0, and the result was expressed as the amount of gastric acid secreted for every 10 minutes (μEq /10 min.). Pentagastrin was intravenously administered at a rate of 15 μg/Kg/hr.
The secretion of gastric acid increased upon administration of pentagastrin, reaching the maximum level after 60 minutes and stably maintaining this level after that.

[2] = table 2, rat brain membranes, [125I]BH-CCK-8, read-out: Receptor binding affinity IC50, CCK-B
[3] = table 1, rat brain membranes, [125I]BH-CCK-8, 25 °C, 120 min, read-out: IC50 (CCK-B receptor binding)

CNc1cccc(NC(=O)N[C@@H]2N=C(c3ccccn3)c3ccccc3N(CC(=O)C(C)(C)C)C2=O)c1 [Example 52, N(-((3R)-1-tert-Butylcarbonylmethyl-2,3-dihydro-2-oxo-5-(2-pyridyl)-1H-1,4-benzodiazepin-3-yl)-N'-3-methylaminophenyl)urea]
A/B Ratio: IC50 (CCK-A)/IC50 (CCK-B) (CCK-A receptor): 5020
IC50 (CCK-A receptor): 502 nM
IC50 (CCK-B receptor; [2]): 0.1 nM

Cc1cccc(NC(=O)NC2N=C(c3cnccn3)c3ccccc3N(CC(=O)C(C)(C)C)C2=O)c1 (racemic) [Example 5, N-((3RS)-1-tert-Butylcarbonylmethyl-2,3-dihydro-2-oxo-5-(2-pyrazinyl)-1H-1,4-benzodiazepin-3-yl)-N'-(3-methylphenyl)urea]
% Inhibition (maximum inhibition of gastric acid secretion) [1]: 55.4%

Cc1cccc(NC(=O)NC2N=C(c3nccn3C)c3ccccc3N(CC(=O)C(C)(C)C)C2=O)c1 (racemic) [Example 1, N-((3RS)-1-tert-Butylcarbonylmethyl-2,3-dihydro-2-oxo-5-(2-(1-methyl)imidazolyl)-1H-1,4-benzodiazepin-3-yl)-N'-(3-methylphenyl)urea]
% Inhibition (maximum inhibition of gastric acid secretion) [1]: 48.9%
A/B Ratio: IC50 (CCK-A)/IC50 (CCK-B) (CCK-A receptor): 187

CN(C)c1cccc(NC(=O)NC2N=C(c3nccs3)c3ccccc3N(CC(=O)C(C)(C)C)C2=O)c1 (racemic) [Example 4, N-((3RS)-1-tert-Butylcarbonylmethyl-2,3-dihydro-2-oxo-5-(2-thiazolyl)-1H-1,4-benzodiazepin-3-yl)-N'-(3-dimethylaminophenyl)urea]
% Inhibition (maximum inhibition of gastric acid secretion) [1]: 55.2%
A/B Ratio: IC50 (CCK-A)/IC50 (CCK-B) (CCK-A receptor): 700
IC50 (CCK-A receptor): 441 nM
IC50 (CCK-B receptor): 0.63 nM

CNc1cccc(NC(=O)NC2N=C(c3ccccn3)c3ccccc3N(CC(=O)C(C)(C)C)C2=O)c1 (racemic) [Example 26, N-((3RS)-1-tert-Butylcarbonylmethyl-2,3-dihydro-2-oxo-5-(2-pyridyl)-1H-1,4-benzodiazepin-3-yl)-N'-(3-(methylamino)phenyl)urea]
IC50 (CCK-B receptor; [3]): 1.4 nM

CN(C)c1cccc(NC(=O)NC2N=C(c3cnccn3)c3ccccc3N(CC(=O)C(C)(C)C)C2=O)c1 (racemic) [Example 6, N-((3RS)-1-tert-Butylcarbonylmethyl-2,3-dihydro-2-oxo-5-(2-pyrazinyl)-1H-1,4-benzodiazepin-3-yl)-N'-(3-dimethylaminophenyl)urea]
% Inhibition (maximum inhibition of gastric acid secretion) [1]: 61.9%
IC50 (CCK-B receptor): 0.22 nM

Cc1cccc(NC(=O)N[C@@H]2N=C(c3ccccn3)c3ccccc3N(CC(=O)C(C)(C)C)C2=O)c1 [Example 42]
ED50 [1]: 0.016 µmol/kg
IC50 (CCK-B receptor; [3]): 0.44 nM

CN(C)c1cccc(NC(=O)N[C@@H]2N=C(c3ccccn3)c3ccccc3N(CC(=O)C(C)(C)C)C2=O)c1 [Example 22, N-((3R)-1-tert-Butylcarbonylmethyl-2,3-dihydro-2-oxo-5-(2-pyridyl)-1H-1,4-benzodiazepin-3-yl)-N'-((3-dimethylamino)phenyl)urea]
ED50 [1]: 0.011 µmol/kg
A/B Ratio: IC50 (CCK-A)/IC50 (CCK-B) (CCK-A receptor): 565
IC50 (CCK-A receptor): 113 nM
IC50 (CCK-B receptor; [3]): 0.2 nM
IC50 (CCK-B receptor; [2]): 0.2 nM

CN(C)c1cccc(NC(=O)NC2N=C(c3ncc[nH]3)c3ccccc3N(CC(=O)C(C)(C)C)C2=O)c1 (racemic) [Example 8B, N-((3RS)-1-tert-Butylcarbonylmethyl-2,3-dihydro-5-(2-imidazolyl)-2-oxo-1H-1,4-benzodiazepin-3-yl)-N'-(3-dimethylaminophenyl)urea]
IC50 (CCK-B receptor): 55.3 nM

CN(C)c1cccc(NC(=O)NC2N=C(c3nccn3C)c3ccccc3N(CC(=O)C(C)(C)C)C2=O)c1 (racemic) [Example 2, N-((3RS)-1-tert-Butylcarbonylmethyl-2,3-dihydro-2-oxo-5-(2-(1-methyl)imidazolyl)-1H-1,4-benzodiazepin-3-yl)-N'-(3-dimethylaminophenyl)urea]
% Inhibition (maximum inhibition of gastric acid secretion) [1]: 47.4%
A/B Ratio: IC50 (CCK-A)/IC50 (CCK-B) (CCK-A receptor): 238
IC50 (CCK-A receptor): 495 nM
IC50 (CCK-B receptor): 2.08 nM

CN(C(=O)OC(C)(C)C)c1cccc(C(=O)O)c1 [Example 50, 3-(N-tert-Butoxylcarbonyl-N-methylamino)benzoic acid]
IC50 (CCK-B receptor; [3]): 0.88 nM

Cc1cccc(NC(=O)NC2N=C(c3nccs3)c3ccccc3N(CC(=O)C(C)(C)C)C2=O)c1 (racemic) [Example 3, N-((3RS)-1-tert-Butylcarbonylmethyl-2,3-dihydro-2-oxo-5-(2-thiazolyl)-1H-1,4-benzodiazepin-3-yl)-N'-(3-methylphenyl)urea]
% Inhibition (maximum inhibition of gastric acid secretion) [1]: 57.6%
A/B Ratio: IC50 (CCK-A)/IC50 (CCK-B) (CCK-A receptor): 540
IC50 (CCK-A receptor): 433 nM
IC50 (CCK-B receptor): 0.8 nM

— patent US5728829A, “Process of preparing benzodiazepine compounds useful as antagonists of CCK or of gastrine” (Ferring-Research Limited, priority 1993, dated 1998)
